{"source": "paper PMC4388811", "about": "“Co-Solvents as Stabilizing Agents during Heterologous Overexpression in Escherichia coli – Application to Chlamydial Penicillin-Binding Protein 6” (PLoS ONE, 2015)", "molecular_target": "T1, PBP6Cp (Chlamydia pneumoniae, UniProt A0A0F7X2J0)", "T1 construct": "native N-terminal signal peptide and C-terminal transmembrane domain removed; OmpA leader (cleaved by E. coli signal peptidase I); C-terminal Strep tag kept; periplasmic expression in E. coli C43(DE3) with betaine", "assay": "TLC of lipid II DD-carboxypeptidase reaction", "type": "biochemical", "settings": "lipid II substrate; 50 mM MES pH 5.5, 2 mM MgCl2, 20% DMSO, 37 C, 4 h; inhibitor concentration not given; active-site serine acylation (covalent) described as general beta-lactam mechanism"}
{"smiles": "CC1(C)S[C@@H]2[C@H](NC(=O)Cc3ccccc3)C(=O)N2[C@H]1C(=O)O", "note": "[penicillin G]", "values": [{"measurement": "TLC of lipid II DD-carboxypeptidase reaction", "value": "DD-carboxypeptidase activity of wild type PBP6Cp was stalled in the presence of penicillin G"}]}
